From PubChem BioAssay AID1626 (SRMLSC, 2009) come the findings set out here.

The test system of this assay is M. tuberculosis H37Rv growth inhibition. As to the kind of experiment: M. tuberculosis H37Rv growth inhibitors, H37Rv strain (AID 1626). Particulars: for IC90: measured here: IC90 against H37Rv; for CC50: measured here: Vero cell cytotoxicity.

Turning to `Cc1nnc(NC(=O)c2ccc3ccccc3n2)s1`, the IC50 was 42.5 µM, the IC90 was greater than 100 µM and the CC50 was greater than 40 µM.

Consider `CC(C)(C)c1ccc(OCCCC(=O)NC2=NCCS2)cc1`, for which the IC50 is 11.8 µM, the IC90 was greater than 100 µM and the CC50 was greater than 40 µM.

In the case of `Cc1ccc(-c2ccc(C3C(C#N)=C(N)Oc4n[nH]c(C)c43)o2)cc1` (stereo unspecified), the IC50 is 2.37 µM, the IC90 is greater than 100 µM and the CC50 was greater than 40 µM.

For the compound `Cc1cccc(C)c1OCC(=O)Nc1cccc(-c2nnc(-c3ccccc3)o2)c1`, the IC50 is 10.7 µM, the IC90 was greater than 100 µM and the CC50 was greater than 40 µM.

Turning to `CNC(=O)C(=O)Nc1nc(C23CC4CC(CC(C4)C2)C3)cs1`, the IC50 is 62.7 µM and the IC90 is greater than 100 µM.

Turning to `Cc1ccc(C(=O)CC(SCC(=O)O)c2ccc([N+](=O)[O-])cc2)cc1` (stereo unspecified), the IC50 is 7.91 µM, the IC90 is greater than 100 µM and the CC50 came to 36.8 µM.

In the case of `COc1ccc(NC(=O)N2CCN(c3nc(-c4cccc(OC)c4)cs3)CC2)cc1`, the IC50 is 9.47 µM, the IC90 is greater than 100 µM and the CC50 is greater than 40 µM.

Turning to `CCOC(=O)CSc1nc(N)c(C#N)c(-c2cccs2)c1C#N`, the IC50 is 1.59 µM and the concentration for an effect of 90% (IC90) was determined as 3.27 µM.

For `CCOc1ccc(NC(=O)CN2CCN(C3c4ccccc4-c4ccccc43)CC2)cc1`, the IC50 is 22.2 µM, the concentration for an effect of 90% (IC90) is greater than 100 µM and the CC50 was greater than 40 µM.

`CCCc1cc(-c2nc(-c3ccc(C)cc3)cs2)ccn1`: the IC50 is 7.61 µM, the IC90 was 22.2 µM and the CC50 is greater than 40 µM.

In the case of `COc1cc(-c2nc3ccc4ccccc4c3c3c2CCC3)cc(OC)c1O`, the IC50 was 13.1 µM, the IC90 came out at 18.8 µM and the CC50 is greater than 40 µM.

`O=C(COC(=O)c1sc2ccccc2c1Cl)NC1CCCCC1`: the IC50 is 12.7 µM, the IC90 was greater than 100 µM and the CC50 was greater than 40 µM.

For the compound `Cc1ccc(-c2c[n+](CC(=O)Nc3nc(-c4ccccc4)cs3)c3n2CCC3)cc1`, the IC50 was 7.81 µM and the IC90 was found to be 16.1 µM.

In the case of `Cc1ccc(Oc2nc(CN3CCOCC3)nc3sc4c(c23)CCC(C)C4)cc1` (stereo unspecified), the IC50 is 17.1 µM, the 90% effect concentration (IC90) stood at 22.4 µM and the CC50 was greater than 40 µM.

Consider `Cc1ccc(Oc2cc(NC(=O)CCCn3nc([N+](=O)[O-])cc3C)cc([N+](=O)[O-])c2)cc1`, for which the IC50 was 12.1 µM, the IC90 was 13.6 µM and the cytotoxic concentration (CC50) is greater than 40 µM.

Turning to `COc1cc(NS(=O)(=O)c2ccc(N)cc2)ncn1`, the IC50 was 6.02 µM and the IC90 is 12.2 µM.

On to `COc1ccc(OCCn2c(NC(=O)c3ccco3)nc3ccccc32)cc1`, for which the IC90 is greater than 100 µM and the CC50 was determined as 33.2 µM.

`CC[C@H](CO)NCCN[C@H](CC)CO`: the IC50 was 0.778 µM and the concentration for an effect of 90% (IC90) was greater than 100 µM.

As to `Cc1cccc(C)c1N1CCN(c2ccc3nnc(C(F)(F)F)n3n2)CC1`, the IC50 was 11.8 µM, the IC90 turned out to be 61.8 µM and the CC50 is greater than 40 µM.

As for `Clc1nc(-c2ccccn2)nc2scc(-c3ccccc3)c12`, the IC50 is 9.23 µM, the IC90 was found to be 15.5 µM and the CC50 stood at 19.9 µM.

With `CN1CCN(C2=Cc3ccccc3Sc3cc(F)c(Cl)cc32)CC1`, the IC50 was 11.6 µM, the IC90 was 13.2 µM and the CC50 came out at 36.4 µM.

`Cc1cc(NC(=O)C2CCCC2)n(-c2nc3ccccc3[nH]2)n1`: the IC50 is 24.6 µM and the IC90 was greater than 100 µM.

For the compound `O=C(Nc1nnc(-c2ccc(Cl)cc2)o1)c1ccccc1Br`, the IC50 is 1.12 µM, the IC90 amounted to 3.35 µM and the CC50 was greater than 40 µM.

`Cc1ccc2nc(Cl)c(/C=C/C(=O)c3ccco3)cc2c1`: the IC50 is 2.26 µM, the 90% effect concentration (IC90) came to 4.01 µM and the CC50 was 25 µM.

For the compound `CC1CCCN(C(=O)C2CCC(CNc3c(N4CCCCC4)c(=O)c3=O)CC2)C1` (stereo unspecified), the IC50 is 11.7 µM and the IC90 was greater than 100 µM.

Consider `OC(CNCCC1C=Nc2ccccc21)Cn1c2ccc(Cl)cc2c2cc(Cl)ccc21` (stereo unspecified), for which the IC50 is 1.82 µM, the IC90 was 2.03 µM and the CC50 is 5.96 µM.

Turning to `Cc1cc(=O)oc2cc(Oc3ncccc3[N+](=O)[O-])ccc12`, the IC50 was 9.46 µM and the IC90 was greater than 100 µM.

Turning to `O=C(CC(=O)c1ccccc1O)c1cccc(F)c1`, the IC50 was 18.4 µM, the IC90 worked out at 29.2 µM and the CC50 is greater than 40 µM.

Turning to `CC(=O)c1ccc(NC(=O)CSCC(=O)Nc2ccc3ccccc3c2)cc1`, the half-maximal inhibitory concentration (IC50) is 51 µM and the IC90 is greater than 100 µM.

Take `CC(=O)OCCCNc1cc(Sc2nc3ccccc3s2)c2nonc2c1[N+](=O)[O-]`: the IC50 was 7.74 µM, the IC90 is 10.1 µM and the CC50 was found to be 16.3 µM.

As to `COc1cccc(CNc2cnc3ccccc3c2)c1O`, the IC50 is 28.6 µM and the IC90 is greater than 100 µM.

On to `COc1ccc(OCc2n(CC(=O)OC3CC(C)CCC3C(C)C)c3ccccc3[n+]2C)cc1` (stereo unspecified), for which the IC50 was 3.34 µM, the IC90 was determined as 5.49 µM and the CC50 is 26.4 µM.

Turning to `COc1ccc(N=c2cc(-c3ccc(O)cc3)oc3ccccc23)cc1`, the IC50 is 5.8 µM, the IC90 was determined as 9.5 µM and the CC50 amounted to 34.3 µM.

As to `Cc1nc([N+](=O)[O-])c(Br)n1CC(=O)c1ccc(Cl)cc1`, the IC50 was 16.8 µM, the IC90 came to 23.2 µM and the CC50 amounted to 30.6 µM.

Regarding `COc1ccc(CCNc2cc(C)nc3c(-c4ccc(Cl)cc4)c(C)nn23)cc1OC`, the IC50 is 1 µM, the IC90 amounted to 5.53 µM and the CC50 is greater than 40 µM.

Turning to `Cc1ccc(NC(=O)CCSc2nnc(Cc3ccccc3)o2)cc1`, the IC50 was 16.5 µM and the IC90 is 29.3 µM.

With `COc1ccc(NC(=O)CN(C)CC(=O)Nc2ccc3c(c2)CCC3)cc1`, the IC50 is 20.6 µM and the IC90 was greater than 100 µM.

`N#C/C(=C/c1cn(-c2ccccc2)nc1-c1cccc(OCc2ccc(F)cc2)c1)C(=O)NCCCn1ccnc1`: the IC50 was 4.19 µM, the 90% effect concentration (IC90) was 6.45 µM and the cytotoxic concentration (CC50) amounted to 22.5 µM.

Turning to `O=C(NCc1nc(-c2ccc(C(F)(F)F)cc2)no1)Nc1cc(Cl)cc(Cl)c1`, the IC50 is 5.74 µM, the IC90 was determined as 10.6 µM and the CC50 turned out to be 12.6 µM.

On to `O=C(/C=C/c1cccc(Cl)c1)c1nc2ccccc2[nH]1`, for which the IC50 is 2.94 µM, the IC90 is 3.34 µM and the CC50 was determined as 15.3 µM.

Consider `CN(C(=O)c1ccco1)c1nc2c(s1)CCCC2`, for which the CC50 is greater than 40 µM.

Take `Cc1ccc(C(=O)N2CCN(c3ccc(NC(=O)COc4ccccc4C)cc3)CC2)cc1`: the IC50 is 9.58 µM, the concentration for an effect of 90% (IC90) is greater than 100 µM and the CC50 was greater than 40 µM.

As to `CCOC(=O)c1cnc(-n2nc(C)cc2C)nc1Nc1ccc(OC)cc1`, the IC50 is 0.641 µM and the IC90 is 1.27 µM.

`Cc1cc(C)cc(NC(=O)c2ccc([N+](=O)[O-])o2)c1`: the IC50 is 9.59 µM, the IC90 was found to be 22.6 µM and the CC50 stood at 9.81 µM.

Take `COc1ccc(NS(=O)(=O)c2ccc3nc(COc4cccc5ccccc45)[nH]c3c2)cc1`: the IC50 is 9.84 µM, the IC90 came out at 15 µM and the CC50 stood at 29.6 µM.

Regarding `N#CC(C(=O)C12CC3CC(CC(C3)C1)C2)c1nc2ccccc2[nH]1` (stereo unspecified), the IC50 was 9.8 µM, the IC90 is greater than 100 µM and the CC50 is greater than 40 µM.

For `COC(=O)COc1ccc2c(=O)c(-c3ccccc3OC)coc2c1`, the IC50 was 3.01 µM and the IC90 worked out at 5.62 µM.

Regarding `CCn1c(NC(=O)C2CCCCC2)nc2ccccc21`, the IC50 was 1.86 µM, the 90% effect concentration (IC90) was greater than 100 µM and the CC50 is greater than 40 µM.

Regarding `CCCCCc1cc(=O)oc2c(C(CCN3CCCC(C)C3)c3ccc(OC)cc3)c(OC)cc(OC)c12` (stereo unspecified), the IC50 is 2.18 µM, the IC90 is 3.26 µM and the CC50 stood at 17.1 µM.

In the case of `COc1ccc(N=C2C(=O)N3c4c(cccc42)C(C)=CC3(C)C)cc1`, the IC90 is greater than 100 µM.

Compound `O=C(Nc1nc2ccccc2s1)C1c2ccccc2Oc2ccccc21` showed an IC90 greater than 100 µM and a CC50 greater than 40 µM.

For the compound `CCc1ccc2[nH]c(O)c(N=Nc3nc(-c4ccccc4)cs3)c2c1`, the IC50 is 1.81 µM, the IC90 stood at 3.44 µM and the CC50 worked out at 37 µM.

For the compound `CCCn1c(=N)c(C(=O)NCc2ccc3c(c2)OCO3)cc2c(=O)n3cccc(C)c3nc21`, the concentration for half-maximal inhibition (IC50) is 19.6 µM, the concentration for an effect of 90% (IC90) came to 31.7 µM and the CC50 is greater than 40 µM.

As to `Cc1[nH]c2ccccc2c1C1=NNC(=Nc2ccc(F)cc2)SC1`, the IC50 was 13.3 µM, the IC90 worked out at 49.8 µM and the CC50 was greater than 40 µM.

`COC(=O)CSc1nc(N)c(C#N)c(CC(C)C)c1C#N`: the IC50 is 2.91 µM and the IC90 came out at 57.5 µM.

In the case of `C=C1C(=O)[C@@]23[C@H](O)C[C@@H]4C(C)(C)CC[C@H](O)[C@@]4(C)[C@@H]2CC[C@@H]1[C@H]3O`, the IC50 is 8.62 µM, the IC90 was found to be 14.6 µM and the CC50 stood at 5.78 µM.

With `CC(C)[C@H](CO)N(Cc1cccc(F)c1)c1nc(Nc2cccc(Cl)c2)c2ncn(C(C)C)c2n1`, the IC50 is 7.31 µM, the IC90 worked out at 14.1 µM and the CC50 is greater than 40 µM.

Consider `COc1cc2c(cc1NC(=O)CSc1nc3ccccc3[nH]1)oc1ccccc12`, for which the IC50 was 10.4 µM, the IC90 is greater than 100 µM and the CC50 was greater than 40 µM.

The compound `CCc1ccc(Nc2c([N+](=O)[O-])c(=O)oc3ccccc23)cc1` gave an IC90 greater than 100 µM and a CC50 greater than 40 µM.

`CCc1ccc(-c2cc(C(F)(F)F)n3nc(C(=O)Nc4c(C)nn(Cc5ccc(F)cc5)c4C)cc3n2)s1`: the IC50 was 16.2 µM, the IC90 was greater than 100 µM and the CC50 was greater than 40 µM.

On to `Cc1[nH]n(-c2nc(-c3ccc(Cl)cc3)cs2)c(=O)c1N=Nc1ccc(O)cc1`, for which the concentration for half-maximal inhibition (IC50) is less than 0.195 µM, the IC90 turned out to be 5.6 µM and the CC50 stood at 15.8 µM.

For orientation: IC50 means the concentration that inhibits the measured activity by half. The IC90 is the concentration needed for an effect of 90%. As a reminder, the CC50 is the concentration that lowers cell viability or growth by half. Lower therefore signals greater toxicity to the cells.
